Measured values taken from publication PMC12314051, “Design, antiproliferative potency, and in silico studies of novel 5-methylfuran-3-yl)thio)-3-phenylquinazolin-4(3H)-one based derivatives as potential EGFR inhibitors” (Scientific Reports, 2025).
Several values for one entry are separate records, joined by “and”; a condition that tells them apart may be missing. Equal values may be shown once.

How the values were obtained:
EGFR = target: T1, EGFR (Homo sapiens, UniProt P00533); assay: In vitro EGFR inhibition assay; type: biochemical
T1 construct: purchased Abcam
T1 sequence (P00533 25-1210): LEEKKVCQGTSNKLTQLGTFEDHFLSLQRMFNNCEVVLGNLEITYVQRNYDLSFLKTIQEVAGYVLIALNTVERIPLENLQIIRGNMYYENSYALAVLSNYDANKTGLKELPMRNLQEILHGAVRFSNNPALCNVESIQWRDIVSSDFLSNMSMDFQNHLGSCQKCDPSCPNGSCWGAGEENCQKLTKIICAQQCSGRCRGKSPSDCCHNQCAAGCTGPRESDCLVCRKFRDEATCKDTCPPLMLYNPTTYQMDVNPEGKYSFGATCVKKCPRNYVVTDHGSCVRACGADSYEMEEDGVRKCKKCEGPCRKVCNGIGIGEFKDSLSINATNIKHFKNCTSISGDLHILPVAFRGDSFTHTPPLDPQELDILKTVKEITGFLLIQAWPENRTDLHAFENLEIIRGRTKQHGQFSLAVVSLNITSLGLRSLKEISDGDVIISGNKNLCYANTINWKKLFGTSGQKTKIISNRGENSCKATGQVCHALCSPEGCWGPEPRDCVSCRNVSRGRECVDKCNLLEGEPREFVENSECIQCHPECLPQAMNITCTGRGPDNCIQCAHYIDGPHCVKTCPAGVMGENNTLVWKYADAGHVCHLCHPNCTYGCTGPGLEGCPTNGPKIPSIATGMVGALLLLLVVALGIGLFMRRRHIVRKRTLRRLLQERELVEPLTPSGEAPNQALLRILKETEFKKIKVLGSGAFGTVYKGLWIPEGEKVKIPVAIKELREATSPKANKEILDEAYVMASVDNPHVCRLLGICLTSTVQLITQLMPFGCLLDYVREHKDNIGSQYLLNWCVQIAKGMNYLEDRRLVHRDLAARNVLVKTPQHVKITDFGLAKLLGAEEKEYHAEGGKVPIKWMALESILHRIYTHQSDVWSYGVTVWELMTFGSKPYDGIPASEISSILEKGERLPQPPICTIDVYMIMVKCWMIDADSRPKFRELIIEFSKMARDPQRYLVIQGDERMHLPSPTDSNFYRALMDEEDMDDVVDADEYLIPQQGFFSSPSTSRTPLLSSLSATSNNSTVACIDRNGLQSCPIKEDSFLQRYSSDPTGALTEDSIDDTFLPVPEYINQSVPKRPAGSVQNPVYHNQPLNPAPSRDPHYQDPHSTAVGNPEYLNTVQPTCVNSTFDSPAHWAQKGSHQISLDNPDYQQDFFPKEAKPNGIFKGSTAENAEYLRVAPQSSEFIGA

HCT-116 cells = assay: MTT cytotoxicity assay, HCT-116; type: cell-based; conditions: Homo sapiens; HCT-116, MTT assay; read-out: IC50 (mean ± SD)
Experimental: (§1) Following the published protocol[75]–[77], the cytotoxic effects of the newly synthesized quinazolinones 1–10 were assessed in vitro using the MTT test method on human liver HepG-2, breast MCF-7, colorectal HCT-116 cancer cell lines, and normal diploid cell line WI-38. There were further details in the supplemetary file.
(§2) The cell lines were obtained from Karolinska Center, Department of Oncology and Pathology, Karolinska Institute and Hospital, Stockholm, Sweden, as follows: human liver HepG-2, breast MCF-7, and colorectal HCT-116 cancer cell lines and human diploid cell line WI-38. Exponentially, cells were placed in 10^4 cells/ well for 24 h, and then fresh medium containing different concentrations of the tested sample. two-fold serial dilution of the tested sample was added using a multichannel pipette. Moreover, all cells were cultivated at 37 °C, 5% CO2 and 95% humidity. Also, incubation of control cells occurred at 37 °C. However, after incubation for 24 h different concentrations of the sample (100, 50, 25, 12.5, 6.25, 3.125, and 1.56 µM) were added, and continued the incubation for 48 h, then, add the crystal violet solution of 1% to each well for 0.5 h to examine viable cells. Rinse the wells using water until no stain. After that, add 30% glacial acetic acid to all wells with shaking plates on a Microplate reader (TECAN, Inc.) to measure the absorbance, using a test wavelength of 490 nm. Besides, compare the treated samples with the control cell. The cytotoxicity was estimated by IC50 in (μM), the concentration that inhibits 50% of growth of cancer cell.

MCF-7 cells [1] = assay: Apoptosis detection, annexin V-FITC/PI flow cytometry; type: cell-based, human
Experimental: (§3) The treated cells were subsequently analyzed using flow cytometry and annexin-V labeling (Fig. 4, 5, 6).
(§4) Using flow cytometry, the investigation of cell cycle analysis and apoptosis was described[79],[81]. After applying quinazolinone-furan-benzo[b][1,4]diazepine 6b to MCF-7 cells for 24 h, the cells were incubated at 37 °C. The supplemental file contained more information.
(§5) Cell cycle analysis and apoptosis study were carried out using ab139418–Propidium Iodide Flow Cytometry Kit for Cell Cycle Analysis. MCF-7 cells were seeded at 8×10^4 and incubated at 37°C in 5% CO2 overnight. After treatment with the tested compound 10 for 24 h, cell pellets were collected and centrifuged (300 g, 5 min). For cell cycle analysis, cell pellets were fixed with 70% ethanol on ice for 15 min and collected again. The pellets were incubated with propidium iodide (PI) staining solution at room temperature for 1 h and analyzed by a Gallios flow cytometer (Beckman Coulter, Brea, CA, USA). Apoptosis detection was carried out by FITC AnnexinV/PI commercial kit (Becton Dickenson, Franklin Lakes, NJ, USA) following the manufacturer protocol. The samples were analyzed by fluorescence-activated cell sorting (FACS) with a Gallios flow cytometer (Beckman Coulter, Brea, CA, USA) within 1 h after staining. Data were analyzed using Kaluza v 1.2 (Beckman Coulter).

HepG-2 cells = assay: MTT cytotoxicity assay, HepG-2; type: cell-based; conditions: Homo sapiens, HepG2; HepG-2, MTT assay; read-out: IC50 (mean ± SD)
Experimental: as §1, §2

VEGFR-2 = target: T2, VEGFR-2 (Homo sapiens, UniProt P35968); assay: In vitro VEGFR-2 inhibition assay (ELISA kit); type: biochemical; conditions: read-out: IC50 (mean ± SD)
T2 construct: purchased Ray Biotech
T2 sequence (P35968 20-1356): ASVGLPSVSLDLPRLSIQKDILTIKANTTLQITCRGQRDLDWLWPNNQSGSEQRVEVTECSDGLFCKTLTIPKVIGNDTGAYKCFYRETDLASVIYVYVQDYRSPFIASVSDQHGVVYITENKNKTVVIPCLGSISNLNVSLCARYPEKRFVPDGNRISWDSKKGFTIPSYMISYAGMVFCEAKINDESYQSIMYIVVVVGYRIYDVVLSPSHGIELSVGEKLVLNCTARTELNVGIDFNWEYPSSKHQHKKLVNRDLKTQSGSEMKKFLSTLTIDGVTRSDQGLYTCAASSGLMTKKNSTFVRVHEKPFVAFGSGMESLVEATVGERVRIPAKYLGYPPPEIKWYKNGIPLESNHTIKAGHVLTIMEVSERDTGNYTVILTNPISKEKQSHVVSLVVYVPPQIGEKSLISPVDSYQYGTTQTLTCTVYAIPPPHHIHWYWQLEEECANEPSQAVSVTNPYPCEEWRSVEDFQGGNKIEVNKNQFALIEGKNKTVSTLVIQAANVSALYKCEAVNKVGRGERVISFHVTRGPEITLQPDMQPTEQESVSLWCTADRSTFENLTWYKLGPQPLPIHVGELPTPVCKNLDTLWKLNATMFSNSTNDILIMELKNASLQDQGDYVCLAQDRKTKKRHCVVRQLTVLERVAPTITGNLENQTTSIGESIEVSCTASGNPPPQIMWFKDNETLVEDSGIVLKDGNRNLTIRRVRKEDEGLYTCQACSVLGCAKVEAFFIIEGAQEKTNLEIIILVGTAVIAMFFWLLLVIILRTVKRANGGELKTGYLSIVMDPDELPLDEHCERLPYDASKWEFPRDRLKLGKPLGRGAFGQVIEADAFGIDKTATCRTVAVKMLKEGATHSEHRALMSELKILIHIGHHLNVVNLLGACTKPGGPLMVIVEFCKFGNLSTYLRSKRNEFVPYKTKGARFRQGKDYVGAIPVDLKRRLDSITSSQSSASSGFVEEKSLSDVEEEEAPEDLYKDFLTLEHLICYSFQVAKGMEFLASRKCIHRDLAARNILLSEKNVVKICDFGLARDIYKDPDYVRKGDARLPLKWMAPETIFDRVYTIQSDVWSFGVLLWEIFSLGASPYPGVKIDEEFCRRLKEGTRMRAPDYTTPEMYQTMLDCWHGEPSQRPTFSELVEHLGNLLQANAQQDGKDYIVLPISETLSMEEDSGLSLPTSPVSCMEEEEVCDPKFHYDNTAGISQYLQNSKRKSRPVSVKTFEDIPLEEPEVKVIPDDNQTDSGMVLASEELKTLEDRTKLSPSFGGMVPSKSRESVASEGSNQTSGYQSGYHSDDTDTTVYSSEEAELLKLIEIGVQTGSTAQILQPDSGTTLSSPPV
Experimental: Quinazolinone-based targets 1, 6b, 8a, and 10 were chosen for further evaluation of their in vitro inhibitory activity against EGFR and VEGFR-2 because of their exceptional cytotoxic outcomes, with the goal of clarifying their mode of action. […]. VEGFR-2 assay: the effect of the most promising cytotoxic compounds 1, 6b, 8a, and 10 was evaluated for their in vitro inhibitory activity against Human VEGFR-2 using ELISA kit according to manufacturer's instructions (Ray Biotech). This assay employs an antibody specific for human VEGFR-2 coated on a 96-well plate. Samples and standards were added to the wells and incubated over night at 4 °C with gentle shaking. The wells were washed and biotinylated antibody was added followed by incubation for one hour at room temperature. After washing away unbound biotinylated antibody, HRP conjugated streptavidin was pipetted to the wells and
incubated at room temperature for 45 min. The wells were then washed; TMB substrate solution was added and incubated for 30 min. The color developed was in proportion to the amount of VEGFR-2 bound. The Stop Solution was added and the intensity of the color was measured at 450 nm. Percent inhibition was calculated by the comparison of compounds treated to control incubations. […]

MCF-7 cells [2] = assay: Cell cycle analysis by flow cytometry (PI); type: cell-based, human; conditions: MCF-7, 3.91 μM, 24 h
Experimental: as §3, §4, §5

[3] = test system: HepG-2, HCT-116 and MCF-7 cell lines; assay: MTT cytotoxicity, all screened cancer cell lines together (SAR summary); type: cell-based, human; conditions: HepG-2, HCT-116 and MCF-7 cell lines
Experimental: […]. In addition, replacement of acetyl group in 2 with pyrazoline moiety with free N-1 in 7 or bound to thiazole in 9, yielded weak activity.
as §1, §2

Bcl-2 = Bcl-2 level in MCF-7 cells; type: cell-based, human; conditions: MCF-7, 3.91 μM, 24 h
Text: (§6) The extrinsic pathway, which is controlled by the death receptor, and the intrinsic pathway, which is handled by the mitochondria, are the two primary mechanisms that govern the cell during apoptosis. The two proteins Bcl-2 and Bax can alter this planned process due to their respective roles as […] (inducer), and the balance between them adjusts cell death. A further vital component that either causes cell death or prevents cell proliferation is the tumor suppressor gene, p53. […] Furthermore, compound 6b increased the amount of p53 protein in MCF-7 treated cells by 7.2 times, while control cells only had 119.65 Pg/mL (Table 3).
(§7) For the promising quinazolinone-furan-benzo[b][1,4]diazepine 6b, the Bax, Bcl-2, and p53 levels in MCF-7 cells were elucidated using the previously disclosed method.
The magnitudes of the apoptotic proteins; BAX and Bcl-2 were evaluated using BIORAD iScript TM One-Step RT-PCR kit with SYBR®Green (BIO-RAD Laboratories, Hercules, CA, US). The method of the applied kit was conducted according to the manufacturer’s protocol and previously reported method. First, mRNA isolation is done using RNeasy extraction kit, up to 1 × 10^7 cells, depending on the cell line. Then Cells were exposed to RNeasy Lysis Buffer (RLT buffer) and homogenized, while ethanol was then supplemented to the mixture to allow selective binding of RNA to the RNeasy membrane. […]

MCF-7 cells [4] = assay: MTT cytotoxicity assay, MCF-7; type: cell-based; conditions: Homo sapiens, MCF7; MCF-7, MTT assay; read-out: IC50 (mean ± SD)
Experimental: as §1, §2

Bax = Bax level in MCF-7 cells; type: cell-based, human; conditions: MCF-7, 3.91 μM, 24 h
Text: as §6, §7
The magnitudes of the apoptotic proteins; BAX and Bcl-2 were evaluated using BIORAD iScript TM One-Step RT-PCR kit with SYBR®Green (BIO-RAD Laboratories, Hercules, CA, US). The method of the applied kit was conducted according to the manufacturer’s protocol and previously reported method. First, mRNA isolation is done using RNeasy extraction kit, up to 1 × 10^7 cells, depending on the cell line. Then Cells were exposed to RNeasy Lysis Buffer (RLT buffer) and homogenized, while ethanol was then supplemented to the mixture to allow selective binding of RNA to the RNeasy membrane. Afterwards, the sample was loaded to the RNeasy mini spin column where total RNA was bound to the membrane while contaminants competently passed through, and high-quality RNA was eluted in RNase-free water. Then, the reaction mixture was incubated in a real-time thermal detection system (Rotorgene) as follows: cDNA synthesis: 10 min at 50 ◦C, iScript reverse transcriptase inactivation: 5 min at 95 ◦C, polymerase chain reaction (PCR) cycling and detection (30–45 cycles): 10s at 95 ^◦C and 30 s at 55 ^◦C to 60 ^◦C (data collection step) and melt curve analysis: 1 min at 95 ◦C and 1 min at 55 ^◦C and 10s at 55 ^◦C (80 cycles, increasing each by 0.5 ^◦C each cycle).

WI-38 cells = assay: MTT cytotoxicity assay, normal WI-38; type: cell-based; conditions: Homo sapiens; normal WI-38, MTT assay; read-out: IC50 (mean ± SD)
Experimental: . […]. Furthermore, the MTT assay was employed to examine the safety profiles of the cytotoxic activity against the normal human diploid cell line WI-38 (Table 1). […]. They could therefore be considered safe chemotherapeutic agents.
as §1, §2

p53 = p53 level in MCF-7 cells (ELISA); type: cell-based, human; conditions: MCF-7, 3.91 μM, 24 h
Text: as §6, §7
Human p53 present in MCF-7 cells was determined; using Human p53 ELISA-Kit (CS0070 Sigma) read using spectrophotometer at 450 nm against untreated control cells (negative control) applying the standard protocols of the manufacturers. The samples or standard having human p53 bind to antibodies adsorbed to the microwells. Addition of biotin-conjugated was followed by incubation and addition of dispense of unbound biotin-conjugated streptavidin HRP. Then, the reaction was terminated by adding acid, and the absorbance was measured at 450 nm.

Structure (SMILES): Cc1occ(Sc2nc3ccccc3c(=O)n2-c2ccccc2)c1C1CC(c2ccco2)Nc2ccccc2N1 (centres unmarked) [Compound 6b, 2-((4-(4-(Furan-2-yl)-2,3,4,5-tetrahydro-1H-benzo[b][1,4]diazepin-2-yl)-5-methylfuran-3-yl)thio)-3-phenylquinazolin-4(3H)-one]
- selectivity EGFR over VEGFR-2 (EGFR; EGFR versus VEGFR-2): substantially more selective for EGFR than VEGFR-2
- IC50 (EGFR; EGFR, read-out: IC50 (mean ± SD)): 0.19 ± 0.03 µM
- IC50 (HCT-116 cells): 7.97 ± 0.5 µM
- Apoptosis Early (MCF-7 cells [1]; MCF-7, 3.91 μM, 24 h): 8.92%
- Apoptosis Late (MCF-7 cells [1]; MCF-7, 3.91 μM, 24 h): 15.39%
- Apoptosis Total (MCF-7 cells [1]; MCF-7, 3.91 μM, 24 h): 29.76
- Necrosis (MCF-7 cells [1]; MCF-7, 3.91 μM, 24 h): 5.45%
- apoptosis in MCF-7 cells as stated in abstract and conclusion (MCF-7 cells [1]; MCF-7, flow cytometry): 35.29%
- IC50 (HepG-2 cells): 5.8 ± 0.4 µM
- IC50 (VEGFR-2): 31.6 ± 1.48 µM
- %G0-G1 (MCF-7 cells [2]): 46.68%
- %G2/M (MCF-7 cells [2]): 35.29%
- %S (MCF-7 cells [2]): 18.03%
- cytotoxic activity in words (SAR study) [3]: Excellent activity
- Bcl-2 (Bcl-2): 2.82 ng/mL and 2.82 ± 0.11 ng/mL
- Bcl-2 protein downregulated versus control (Bcl-2): 2.6 times
- IC50 (MCF-7 cells [4]): 3.91 ± 0.2 µM
- Bax (Bax): 241.60 pg/mL and 241.6 ± 1.33 pg/mL
- Bax/Bcl-2 (Bax): 85.67
- rise in Bax levels versus untreated control (Bax): 6.3 fold
- IC50 (WI-38 cells): 41.3 ± 2.5 µM
- P53 (p53): 860.55 ± 2.47 pg/mL
- increase of p53 protein versus control (p53): 7.2 times
